Assay results as given in PubChem BioAssay (NCI).
Values joined by “and” are separate entries in the source; they are usually repeats but may differ in a detail not shown here. Identical values can stand only once.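 Grown in 96-well plates, cells were treated for 48 hours with each compound at five concentrations. Insufficient inhibition: endpoint recorded as highest concentration tested. Here, GI50 denotes the concentration required for 50% inhibition of growth. TGI: concentration producing complete growth inhibition.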

How the values were obtained:
Experiment in all cases: NCI anticancer screen, dose series, 48 h
[1] = system: T-47D breast
[2] = system: RXF 393 renal
[3] = system: OVCAR-5 ovarian
[4] = system: U251 CNS
[5] = system: SR leukemia
[6] = system: 786-0 renal
[7] = system: A549 NSCLC
[8] = system: SNB-19 CNS
[9] = system: MDA-MB-231 breast
[10] = system: EKVX NSCLC

| Compound | GI50 [1] | TGI [1] | GI50 [2] [µM] | TGI [2] [µM] | GI50 [3] | TGI [3] | GI50 [4] [µM] | TGI [4] [µM] | GI50 [5] [µM] | TGI [5] [µM] | GI50 [6] | TGI [6] | GI50 [7] | TGI [7] | GI50 [8] [µM] | TGI [8] | GI50 [9] | TGI [9] | TGI [10] | GI50 [10] |
| --- | --- | --- | --- | --- | --- | --- | --- | --- | --- | --- | --- | --- | --- | --- | --- | --- | --- | --- | --- | --- |
| CC/C(=C(/c1ccc(OCCN(C)C)cc1)c1ccc(OC(=O)CCCCCCCCC(=O)c2c(C)[nH]c(/C=C3\N=C(c4ccc[nH]4)C=C3OC)c2C)cc1)c1ccccc1 | 3.56 µM | > 100 µM | 13.9 | > 100 | > 100 µM | > 100 µM | 4.2 | > 100 | 4.1 | > 100 | 5.19 µM | > 100 µM | 4.13 µM | > 100 µM | 12.1 | 50.7 µM | 3.4 µM | 18.1 µM |  |  |
| Cc1c(Cl)c(C)c(Cl)c(O)c1Cl |  | > 100 µM |  | > 100 |  | > 100 µM |  | 37.7 |  |  |  | > 100 µM |  | 71.9 µM |  | > 100 µM |  | > 100 µM | 82.1 µM |  |
| O=C(NN1C(=O)CSC1c1c(Cl)cccc1Cl)C(O)c1ccccc1 (stereo not drawn) | 40.4 µM | > 100 µM | 29.3 | > 100 | > 100 µM | > 100 µM | 37.3 | > 100 |  |  | 69.3 µM | > 100 µM | 21.2 µM | 81.6 µM | 71.6 | > 100 µM | 19.2 µM | > 100 µM | > 100 µM | 59.6 µM |
| Nc1c(C(=O)Nc2cccc(C(F)(F)F)c2)sc2nc3c(cc12)CCCCCC3 | 1.35 µM | 6.2 µM | 1.63 | 3.21 | 3.29 µM | 13.7 µM | 2.58 | 10.5 | 3.77 | 19 | 1.6 µM | 3.12 µM | 1.77 µM | 5.08 µM | 3.16 | 13.1 µM | 3.09 µM | 10.6 µM |  |  |
| CN(C)c1ccc(/C=c2/c3cc(O)ccc3n3c2cc(-c2ccccc2)[n+]3C)cc1 |  |  |  | 3.54 | 6.04 µM | > 100 µM |  | 1.52 |  | 4.41 | 1.31 µM |  |  | > 100 µM | 0.277 | 1.7 µM and 1.47 µM |  | 2.82 µM |  |  |
| COc1cc2c(cc1-c1coc3cc(O)ccc3c1=O)OCO2 |  | 65.6 µM |  |  |  | > 100 µM |  | 45.9 |  |  |  | 29.9 µM |  | 77.4 µM |  | 43.1 µM |  |  | > 100 µM |  |
| CN1CCN(CCC=C2c3ccccc3Sc3ccc(S(=O)(=O)N(C)C)cc32)CC1 | 1.52 µM and 3.85 µM | 3.42 µM and 16.7 µM | 1.68 | 5.52 | 10.9 µM and 14.8 µM | 38.8 µM and 30 µM |  |  | 2.19 | 7.74 | 4.12 µM and 6.73 µM | 16.2 µM and 20.8 µM | 5.69 µM and 9.71 µM | > 100 µM and 31.5 µM |  |  | 1.82 µM and 4.4 µM | 4.43 µM and 16.8 µM | > 100 µM and 63.5 µM | 9.15 µM and 13.6 µM |
| CCn1ncc(N=O)c1N |  | > 100 µM |  |  |  | > 100 µM |  |  |  | > 100 |  | > 100 µM |  | > 100 µM |  | > 100 µM |  |  | > 100 µM |  |
| CC(=O)N[C@@H](Cc1ccc(OP(=O)(O)O)cc1)C(=O)N[C@H]1CCC(=O)N2CCC[C@@H](C(=O)NC3CCc4ccccc43)N2C1=O (stereo partly drawn) | > 25 µM | > 25 µM | > 25 | > 25 | > 25 µM | > 25 µM | > 25 | > 25 |  |  | > 25 µM | > 25 µM | > 25 µM | > 25 µM | > 25 | > 25 µM | > 25 µM | > 25 µM |  |  |
| Cn1c(=O)c(Oc2ccc(F)cc2F)cc2cnc(NCC(C)(C)O)nc21 | > 25 µM | > 25 µM | > 25 | > 25 | > 25 µM | > 25 µM | > 25 | > 25 | > 25 | > 25 | > 25 µM | > 25 µM | > 25 µM | > 25 µM | > 25 | > 25 µM | > 25 µM | > 25 µM |  |  |
| N#C/C(=C\c1ccc[nH]1)C(=O)c1ccccc1 |  |  |  | > 100 |  | > 100 µM |  | > 100 |  | > 100 |  | > 100 µM |  | > 100 µM |  | > 100 µM |  |  | > 100 µM |  |
| COc1cc(C2CC(c3cccc(Nc4ccnc5cc(Cl)ccc45)c3)=NN2c2ccccc2)cc(OC)c1OC (stereo not drawn) | 1.44 µM | > 100 µM | 8.37 | > 100 | > 100 µM | > 100 µM |  |  | 5.49 | > 100 | 5.88 µM | > 100 µM | 8.87 µM | > 100 µM | > 100 | > 100 µM | 4.77 µM | > 100 µM |  |  |
| Cc1c(C(=O)c2ccccc2)[n+](=O)c2cc(F)c(F)cc2n1[O-] | 3.7 µM | 20.1 µM |  |  | 18.7 µM | 33.8 µM | 1.71 | 3.08 | 0.316 | 5.24 | 16.6 µM | 31.2 µM | 7.26 µM | 30.9 µM | 2.3 | 5.3 µM | 1.46 µM | 2.83 µM | 33 µM | 10.4 µM |
| CN(C)C1CN(C(=O)c2cc(-c3ccc4ncnc(N5CCc6cc(F)c(Cl)cc65)c4c3)cnc2N)C1 | 0.299 µM | 5.52 µM | 0.369 | 2.34 | 0.743 µM | > 100 µM | 1.34 | > 100 | 1.17 | > 100 | 0.436 µM | > 100 µM | 0.486 µM | > 100 µM | 1.65 | > 100 µM | 0.931 µM | > 100 µM |  |  |
| C[C@]12CCc3nn(-c4ccccc4)nc3C1CC[C@@H]1C2CC[C@]2(C)C(=O)CCC12 (stereo partly drawn) |  |  |  | > 100 |  | > 100 µM |  | > 100 |  | > 100 |  | > 100 µM |  | > 100 µM |  | > 100 µM |  |  | > 100 µM |  |
| COC(=O)C(C(=O)C(=O)Nc1ccccc1C)c1nc2ccc([N+](=O)[O-])cc2[nH]c1=O (stereo not drawn) |  |  |  | > 100 |  | > 100 µM |  | > 100 |  | > 100 |  | > 100 µM |  | > 100 µM |  | > 100 µM |  |  | > 100 µM |  |
